Literature values, collected in patent publication US20090023668A1, “Method for treating blepharitis” (priority 2006, published 2009).

Details: administered to an ocular area at a concentration of 0.1%

Q: For C[C@@H]1C[C@H]2[C@@H]3CCC4=CC(=O)C=C[C@]4(C)[C@@]3(F)[C@@H](O)C[C@]2(C)[C@@]1(O)C(=O)CO [dexamethasone], which “effect on intraocular pressure” value is on record?
A: can result in an increase in intraocular pressure
